Experimental data: ChEMBL document CHEMBL4043204, “meso-Dihydroguaiaretic acid derivatives with antibacterial and antimycobacterial activity” (Bioorg Med Chem, 2017)
Converted amounts (≈) assume the structure as drawn. The source made the active and inactive calls. The rule behind the calls is not given here.

Legend:
Type in all cases: functional
[1] = tested on: Mycobacterium tuberculosis; experiment: Antimycobacterial activity against isoniazid/rifampicin/ethambutol-resistant Mycobacterium tuberculosis G122 assessed as inhibition of mycobacterial growth incubated for 2 weeks by MABA method; settings: for MIC: Mycobacterium tuberculosis, G122, 336 h
[2] = tested on: Mycobacterium tuberculosis; experiment: Antimycobacterial activity against isoniazid/rifampicin/streptomycin-resistant Mycobacterium tuberculosis G133 assessed as inhibition of mycobacterial growth incubated for 2 weeks by MABA method; settings: for MIC: Mycobacterium tuberculosis, G133, 336 h
[3] = tested on: Mycobacterium tuberculosis; experiment: Antimycobacterial activity against isoniazid/rifampicin/ethambutol-resistant Mycobacterium tuberculosis G122 assessed as inhibition of mycobacterial growth up to 50 ug/ml incubated for 2 weeks by MABA method
[4] = tested on: Mycobacterium tuberculosis; experiment: Antimycobacterial activity against isoniazid/rifampicin/streptomycin-resistant Mycobacterium tuberculosis G133 assessed as inhibition of mycobacterial growth up to 50 ug/ml incubated for 2 weeks by MABA method
[5] = tested on: Mycobacterium tuberculosis; experiment: Antibacterial activity against multidrug-resistant Mycobacterium tuberculosis

SMILES	-logMIC [1]	-logMIC [2]	growth inhibition (GI) [3]	growth inhibition (GI) [4]	MIC [1]	MIC [2]	MIC [5]
CCCCCCCCCCCCCCCC(=O)Oc1ccc(C[C@@H](C)[C@@H](C)Cc2ccc(OC(=O)CCCCCCCCCCCCCCC)c(OC)c2)cc1OC	4.02	4.02	inactive	inactive	–	–	–
COc1cc(C[C@@H](C)[C@@H](C)Cc2ccc(OC(=O)c3ccccn3)c(OC)c2)ccc1O (racemic)	3.86	3.86	–	–	25 µg/mL (≈ 57.4 µM)	> 50 µg/mL	–
COc1cc(C[C@@H](C)[C@@H](C)Cc2ccc(OCCN(C)C)c(OC)c2)ccc1OCCN(C)C	4.62	4.62	–	–	12.5 µg/mL (≈ 26.4 µM)	12.5 µg/mL (≈ 26.4 µM)	–
COc1cc(C[C@@H](C)[C@@H](C)Cc2ccc(OC(=O)c3ccc(Br)cc3)c(OC)c2)ccc1OC(=O)c1ccc(Br)cc1	4.09	4.09	inactive	inactive	–	–	–
COc1cc(C[C@@H](C)[C@@H](C)Cc2ccc(OCCN3CCOCC3)c(OC)c2)ccc1OCCN1CCOCC1	–	–	–	–	6.25 µg/mL (≈ 11.2 µM)	25 µg/mL (≈ 44.9 µM)	–
COc1cc(C[C@@H](C)[C@@H](C)Cc2ccc(OC(C)=O)c(OC)c2)ccc1O (racemic)	4.07	4.07	–	–	> 50 µg/mL	> 50 µg/mL	–
COc1cc(C[C@@H](C)[C@@H](C)Cc2ccc(OC(=O)c3cnccn3)c(OC)c2)ccc1OC(=O)c1cnccn1	4.23	4.23	–	–	> 50 µg/mL	> 50 µg/mL	–
CCN(CC)CCOc1ccc(C[C@@H](C)[C@@H](C)Cc2ccc(OCCN(CC)CC)c(OC)c2)cc1OC	4.25	4.25	–	–	25 µg/mL (≈ 47.3 µM)	25 µg/mL (≈ 47.3 µM)	–
COc1cc(C[C@@H](C)[C@@H](C)Cc2ccc(OCCN3CCCCC3)c(OC)c2)ccc1O (racemic)	–	–	–	–	25 µg/mL (≈ 56.6 µM)	25 µg/mL (≈ 56.6 µM)	–
CC[C@@H](CO)NCCN[C@@H](CC)CO [ETHAMBUTOL]	–	–	–	–	6.25 µg/mL (≈ 30.6 µM)	3.12 µg/mL (≈ 15.3 µM)	–
COc1cc(C[C@@H](C)[C@@H](C)Cc2ccc(OC(=O)c3cnccn3)c(OC)c2)ccc1O (racemic)	4.07	4.07	–	–	> 50 µg/mL	> 50 µg/mL	–
COc1cc(C[C@@H](C)[C@@H](C)Cc2ccc(OCCN3CCCCC3)c(OC)c2)ccc1OCCN1CCCCC1	–	–	–	–	6.25 µg/mL (≈ 11.3 µM)	6.25 µg/mL (≈ 11.3 µM)	–
COc1cc(C[C@@H](C)[C@@H](C)Cc2ccc(OCCN3CCCC3)c(OC)c2)ccc1O (racemic)	4.95	4.95	–	–	25 µg/mL (≈ 58.5 µM)	25 µg/mL (≈ 58.5 µM)	–
CCCCCCCC/C=C\CCCCCCCC(=O)Oc1ccc(C[C@@H](C)[C@@H](C)Cc2ccc(OC(=O)CCCCCCC/C=C\CCCCCCCC)c(OC)c2)cc1OC	4.58	4.58	inactive	inactive	–	–	–
COc1cc(C[C@@H](C)[C@@H](C)Cc2ccc(OC(=O)c3ccccn3)c(OC)c2)ccc1OC(=O)c1ccccn1	3.91	3.91	inactive	inactive	–	–	–
COc1cc(C[C@@H](C)[C@@H](C)Cc2ccc(OCCN3CCOCC3)c(OC)c2)ccc1O (racemic)	–	–	inactive	inactive	–	–	–
CCCCCCCCCCCCCCCCCC(=O)Oc1ccc(C[C@H](C)[C@H](C)Cc2ccc(O)c(OC)c2)cc1OC (racemic)	3.84	3.84	inactive	inactive	–	–	–
CCCCCCCCCCCCCCCC(=O)Oc1ccc(C[C@H](C)[C@H](C)Cc2ccc(O)c(OC)c2)cc1OC (racemic)	3.93	3.93	inactive	inactive	–	–	–

SMILES	-logMIC [1]	-logMIC [2]	growth inhibition (GI) [3]	growth inhibition (GI) [4]	MIC [1]	MIC [2]	MIC [5]
COc1cc(C[C@@H](C)[C@@H](C)Cc2ccc(OC(=O)c3cccnc3)c(OC)c2)ccc1OC(=O)c1cccnc1	4.2	4.2	–	–	> 50 µg/mL	> 50 µg/mL	–
COc1cc(C[C@@H](C)[C@@H](C)Cc2ccc(OC(C)=O)c(OC)c2)ccc1OC(C)=O	4.23	4.23	–	–	> 50 µg/mL	> 50 µg/mL	–
COc1cc(C[C@@H](C)[C@@H](C)Cc2ccc(OC(=O)c3ccccc3)c(OC)c2)ccc1O (racemic)	4.01	4	–	–	> 50 µg/mL	> 50 µg/mL	–
CCCC(=O)Oc1ccc(C[C@H](C)[C@H](C)Cc2ccc(O)c(OC)c2)cc1OC (racemic)	3.93	3.93	inactive	inactive	–	–	–
COc1cc(C[C@@H](C)[C@@H](C)Cc2ccc(OC(=O)c3ccccc3)c(OC)c2)ccc1OC(=O)c1ccccc1	4.14	4.14	inactive	inactive	–	–	–
C[C@H]1COc2c(N3CCN(C)CC3)c(F)cc3c(=O)c(C(=O)O)cn1c23.C[C@H]1COc2c(N3CCN(C)CC3)c(F)cc3c(=O)c(C(=O)O)cn1c23.O [LEVOFLOXACIN]	–	–	–	–	6.25 µg/mL	1.56 µg/mL	–
COc1cc(C[C@@H](C)[C@@H](C)Cc2ccc(OC(=O)c3ccccc3[N+](=O)[O-])c(OC)c2)ccc1O (racemic)	4.24	3.93	–	–	50 µg/mL (≈ 104 µM)	> 50 µg/mL	–
COc1cc(C[C@@H](C)[C@@H](C)Cc2ccc(OC(=O)c3cccnc3)c(OC)c2)ccc1O (racemic)	4.05	4.05	–	–	50 µg/mL (≈ 115 µM)	50 µg/mL (≈ 115 µM)	–
COc1ccc(C[C@@H](C)[C@@H](C)Cc2ccc(OC)c(OC)c2)cc1OC [TERAMEPROCOL]	4.95	4.35	inactive	inactive	–	–	–
COc1cc(C[C@@H](C)[C@@H](C)Cc2ccc(OCCN(C)C)c(OC)c2)ccc1O (racemic)	4.23	4.23	–	–	> 50 µg/mL	> 50 µg/mL	–
CCCC(=O)Oc1ccc(C[C@@H](C)[C@@H](C)Cc2ccc(OC(=O)CCC)c(OC)c2)cc1OC	4.03	4.03	inactive	inactive	–	–	–
COc1cc(C[C@@H](C)[C@@H](C)Cc2ccc(OC(=O)c3ccc(Br)cc3)c(OC)c2)ccc1O (racemic)	3.98	3.97	–	–	> 50 µg/mL	> 50 µg/mL	–
CCCCCCCC/C=C\CCCCCCCC(=O)Oc1ccc(C[C@H](C)[C@H](C)Cc2ccc(O)c(OC)c2)cc1OC (racemic)	3.9	3.9	inactive	inactive	–	–	–
COc1cc(C[C@@H](C)[C@@H](C)Cc2ccc(OC)c(OC)c2)ccc1O (racemic)	3.94	3.94	–	–	50 µg/mL (≈ 145 µM)	50 µg/mL (≈ 145 µM)	–
CCCCCCCCCCCCCCCCCC(=O)Oc1ccc(C[C@@H](C)[C@@H](C)Cc2ccc(OC(=O)CCCCCCCCCCCCCCCCC)c(OC)c2)cc1OC	3.85	3.85	inactive	inactive	–	–	–
COc1cc(C[C@@H](C)[C@@H](C)Cc2ccc(O)c(OC)c2)ccc1O [MESODIHYDROGUAIARETIC ACID]	–	–	–	–	> 50 µg/mL	> 50 µg/mL	12.5 to 50 µg/mL (≈ 37.8 to 151 µM)
COc1cc(C[C@@H](C)[C@@H](C)Cc2ccc(OC(=O)c3ccccc3[N+](=O)[O-])c(OC)c2)ccc1OC(=O)c1ccccc1[N+](=O)[O-]	4.03	4.03	inactive	inactive	–	–	–
COc1cc(C[C@@H](C)[C@@H](C)Cc2ccc(OCCN3CCCC3)c(OC)c2)ccc1OCCN1CCCC1	–	–	–	–	12.5 µg/mL (≈ 23.8 µM)	12.5 µg/mL (≈ 23.8 µM)	–
